According to patent US8354398B2, “Substituted isoxazole compounds” (Bristol-Myers Squibb Company, priority 2009, dated 2013):

How the values were obtained:
[1] = system: circulating lymphocytes; test: Blood Lymphocyte Reduction Assay (BLR) in rats; format: in vivo; details: Lewis rats, oral, vs vehicle group
Description: (§1) Lewis rats or BALB/c mice were dosed orally with test article (as a solution or suspension in the vehicle) or vehicle alone (polyethylene glycol 300, “PEG300”). Blood was drawn at 4 hr and 24 h by retro-orbital bleeding. Blood lymphocyte counts were determined on an ADVIA® 120 Hematology Analyzer (Siemens Healthcare Diagnostics). The results were measured as a reduction in the percentage of circulating lymphocytes as compared to the vehicle treated group at the 4 hr and 24 hr measurement. The results represent the average results of all animals within each treatment group (n=3-4).
(§2) Examples 1 and 2 were tested in the Blood Lymphocyte Reduction assay (BLR) described hereinabove and the results are shown in Table D for rats and Table E for mice.

[2] = system: circulating lymphocytes; test: Blood Lymphocyte Reduction Assay (BLR) in mice; format: in vivo; details: BALB/c mice, oral, vs vehicle group
Description: as §1, §2

[3] = system: adjuvant induced arthritis (paw swelling); test: Rat Adjuvant Induced Arthritis Assay (AA); format: in vivo, Lewis rats; details: for Paw Swelling (mL) on Day 20, Mean: male Lewis rats, vehicle mean 1.53
Description: Male Lewis rats (150-175 g; Harlan, n=8 treatment group) were immunized at the base of the tail with […] of 10 mg/ml freshly ground Mycobacterium butyricum (Difco Laboratories) in incomplete Freund's adjuvant (sigma) Animals were dosed once daily with the test article (as a solution or suspension in the vehicle) or vehicle alone (polyethylene glycol 300, “PEG300”) starting from the day of immunization. The volumes of their hind paws were measured in a water displacement plethysmometer (Ugo Basile, Italy). The baseline paw measurements were taken before onset of the disease (between day 7 to day 10). The paw measurements were then taken three times a week until the end of the study on day 20. All procedures involving animals were reviewed and approved by the Institutional Animal Care Use Committee.

[4] = target: T1, S1P3 (Homo sapiens, UniProt Q99500); test: Method B: Receptor [35S] GTPγS SPA Binding Assay, membranes from S1P3 transfected CHO cells; format: biochemical; parameters: expressed in transfected cells; host or cells: CHO cells; details: S1P3 transfected CHO cell membranes, NC = a satisfactory dose response curve was not obtained
Description: Membranes prepared from S1P1 or S1P3 transfected CHO cells (2 μg protein) were incubated in 96-well white plates (CORNING® 3693) with test compounds diluted in DMSO, in 50 μl of reaction mixture containing 7.5 μl WGA-PVT beads (20 mg/ml), and 5 μM GDP, 20 mM HEPES pH 7.4, 100 mM NaCl, 1 mM EDTA, 5 mM MgCl2, 10 μg/ml saponin, 0.1% BSA, and 1 μM leupeptin. The assay was initiated with the addition of 25 μl of 0.2 nM [^35S]-GTPγS (1250 Ci/mmol; NEN) in assay buffer. After 90 min incubation at room temperature, spin the plate at 1000 rpm for 5 min. The bound radionuclides were measured at TOPCOUNT®, expressed as % response relative to S1P (1 μM) activation. Data was analyzed using the four parameter logistic equation in Excel. The four parameters in the equation, Y=A+((B−A)/(1+((EC50/X)^D))), are described as following: A is the Y value (agonist activity) at the bottom plateau; B is the Y value at the top plateau; EC50 is the X value (agonist concentration) when the response is halfway between bottom and top; D is Hill coefficient. Curves were not generated for compounds having Ymax values were below 50%.
Compounds of the present invention and Comparative Compound A were tested in the Receptor [^35S] GTPγS Binding Assays (Method A) and Receptor [35S] In some instances, the value is an average of multiple experiments where N is the number of experiments conducted that provided satisfactory dose response curves. When more than one batch of an example was tested, the value presented is from a batch which allowed a comparison of GTPγS S1P1 and GTPγS S1P3 in which the most number of experiments were performed. Preferably, the same batch was examined in Method A and Method B. Data was not averaged across different batches of an example compound.
Target sequence in this assay (Q99500 whole entry, species assumed): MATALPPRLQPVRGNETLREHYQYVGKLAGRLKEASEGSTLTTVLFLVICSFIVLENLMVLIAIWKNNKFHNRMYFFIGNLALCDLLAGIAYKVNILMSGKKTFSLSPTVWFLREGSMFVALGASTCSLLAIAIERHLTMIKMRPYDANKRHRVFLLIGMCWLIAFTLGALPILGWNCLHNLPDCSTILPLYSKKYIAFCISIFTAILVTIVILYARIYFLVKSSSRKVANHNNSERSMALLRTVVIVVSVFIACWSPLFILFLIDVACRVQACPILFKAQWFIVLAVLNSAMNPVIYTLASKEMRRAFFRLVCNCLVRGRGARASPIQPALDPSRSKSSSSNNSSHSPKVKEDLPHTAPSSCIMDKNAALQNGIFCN

[5] = target: T2, S1P1 (Homo sapiens, UniProt P21453); test: Method A: Receptor [35S] GTPγS Binding Assay, membranes from S1P1/CHO cells; format: biochemical; parameters: expressed in transfected cells; host or cells: S1P1/CHO cells
T2 sequence (P21453 whole entry): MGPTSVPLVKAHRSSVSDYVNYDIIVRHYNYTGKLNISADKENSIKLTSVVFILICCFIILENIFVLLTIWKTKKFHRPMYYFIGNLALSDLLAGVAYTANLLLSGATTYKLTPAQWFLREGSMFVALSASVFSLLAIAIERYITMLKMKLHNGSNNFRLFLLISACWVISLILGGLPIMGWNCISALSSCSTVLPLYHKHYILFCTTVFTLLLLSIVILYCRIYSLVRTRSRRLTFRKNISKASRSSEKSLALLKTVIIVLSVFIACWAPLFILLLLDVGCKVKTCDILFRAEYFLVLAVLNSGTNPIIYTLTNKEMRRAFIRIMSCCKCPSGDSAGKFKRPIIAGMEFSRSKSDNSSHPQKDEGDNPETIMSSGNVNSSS
In short: (§3)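 Membranes ([…]) incubated 45 min at room temperature with 3-fold compound dilutions and 0.2 nM final [35S]GTPγS in HEPES pH 7.5 buffer containing 10 μM GDP, MgCl2, EGTA, DTT, BSA and saponin. Bound label collected by filtration and scintillation counting; EC50 taken at 50% of each compound's Ymax.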

[6] = target: T2, S1P1; test: Method B: Receptor [35S] GTPγS SPA Binding Assay, membranes from S1P1 transfected CHO cells; format: biochemical; parameters: expressed in transfected cells; host or cells: S1P1/CHO cells
In short: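 CHO-cell membranes (2 μg protein) with test compound, 5 μM GDP, saponin and WGA-PVT SPA beads, pH 7.4; reaction started with 0.2 nM [35S]-GTPγS, 90 min at room temperature. Bound counts expressed as % of 1 μM S1P response, EC50 from four-parameter logistic fit; no curves where Ymax below 50%.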

[7] = target: T1, S1P3; test: Method A: Receptor [35S] GTPγS Binding Assay, membranes from EDG3-Ga15-bla HEK293T cells; format: biochemical; parameters: expressed in transfected cells; host or cells: EDG3-Ga15-bla HEK293T cells; details: EDG3-Ga15-bla HEK293T cell membranes
In short: as §3
Target sequence in this assay (Q99500 whole entry): as the sequence (Q99500 whole entry, species assumed) above

O=C(O)C1CN(Cc2ccc(-c3noc(-c4onc(-c5ccccc5)c4C(F)(F)F)n3)cc2)C1 [Example 1, 1-(4-(5-(3-Phenyl-4-(trifluoromethyl)isoxazol-5-yl)-1,2,4-oxadiazol-3-yl)benzyl)azetidine-3-carboxylic acid]
% reduction in lymphocytes at 4 hr. ([1]; 0.03 mg/kg): 75% | % reduction in lymphocytes at 24 hr. ([1]; 0.03 mg/kg): 45% | % reduction in lymphocytes at 4 hr. ([1]; 0.3 mg/kg): 82% | % reduction in lymphocytes at 24 hr. ([1]; 0.3 mg/kg): 73% | % reduction in lymphocytes at 4 hr. ([2]; 0.001 mg/kg): 12% | % reduction in lymphocytes at 24 hr. ([2]; 0.001 mg/kg): 31% | % reduction in lymphocytes at 4 hr. ([2]; 0.01 mg/kg): 32% | % reduction in lymphocytes at 24 hr. ([2]; 0.01 mg/kg): 45% | % reduction in lymphocytes at 4 hr. ([2]; 0.1 mg/kg): 85% | % reduction in lymphocytes at 24 hr. ([2]; 0.1 mg/kg): 89% | % reduction in lymphocytes at 4 hr. ([2]; 1.0 mg/kg): 90% | % reduction in lymphocytes at 24 hr. ([2]; 1.0 mg/kg): 91% | disease progression as measured by paw swelling ([3]; Lewis rat, prophylactic oral dosing): inhibits disease progression | Paw Swelling (mL) on Day 20, Mean ([3]; 0.03 mg/kg once daily from day of immunization): 1.39 mL | Paw Swelling (mL) on Day 20, Mean ([3]; 0.1 mg/kg once daily from day of immunization): 0.55 mL | Paw Swelling (mL) on Day 20, Mean ([3]; 0.5 mg/kg once daily from day of immunization): 0.23 mL | Paw Swelling (mL) on Day 20, Mean ([3]; 3.0 mg/kg once daily from day of immunization): 0.29 mL | EC50 [4]: 510 nM | EC50 ([5]; Method A, S1P1/CHO cell membranes): 0.68 nM | GTPγS S1P3/S1P1 (Method A) ([5]; ratio of GTPγS S1P3 EC50 to GTPγS S1P1 EC50, Method A): 1,400 | EC50 ([6]; Method B SPA, S1P1 transfected CHO cell membranes, NC = a satisfactory dose response curve was not obtained): 0.048 nM | GTPγS S1P3/S1P1 (Method B) ([6]; ratio of GTPγS S1P3 EC50 to GTPγS S1P1 EC50, Method B): 11,000 | EC50 [7]: 940 nM
